# Experimental data: patent US20120283303A1, “USE OF N-AMINOIMIDAZOLE CYTOPROTECTIVE COMPOUNDS FOR TREATING CELL DEATH AND/OR GSK-3 MEDIATED DISEASES” (K.U.LEUVEN RESEARCH AND DEVELOPMENT, priority 2006, published 2012)
# Test system: Peripheral blood mononuclear cells (PBMCs)
# Assay: PBMC survival (viable cell count, trypan blue exclusion)
# Assay type: cell-based, human
# Conditions: NAIM alone, compared to control conditions
# Protocol: Peripheral blood mononuclear cells (PBMCs) from healthy donors were isolated by density centrifugation (Lymphoprep; Nycomed Pharma, AS Diagnostics, Oslo, Norway). For the “non-stimulated” conditions (NS) the cells were cultivated at a density of 1,750,000 cells per ml in RPMI-1640 supplemented with 2 mM L-glutamine, 15% FCS and 0.1% NaHCO3 for 3 days. […] At day 0 of the experiment, the NS and activated cells (PHA-stimulated blasts) were washed with PBS and were pelleted by centrifugation. […] The number of viable cells was counted based on the trypan blue exclusion method. The evolution of the number of cells was followed over a period of approximately 2 weeks.
row,Structure (SMILES),"PBMC cell viability, NAIM as such"
1,Cc1nc(SC(O)C(O)C(O)C(O)C(O)CO)n(Nc2cccc3ccccc23)c1-c1ccccc1 (stereo not shown) [HER/NR953],did not affect the cell viability

# Target: T1, GSK-3β (Homo sapiens, UniProt P49841)
# T1 construct: purchased Upstate Biotechnology
# Assay: Radiometric kinase activity assay
# Assay type: biochemical
# Conditions: same experimental set-up as Table 1
# Protocol: (§1) GSK-3 were assayed for their ability to phosphorylate the appropriate peptide/protein substrate in the presence of 5 μg/ml NR-818 and 10 μM ATP. Using the direct radiometric approach, kinase activities were determined and expressed as % activity compared to the untreated control (Upstate Biotechnology, Lake Placid, N.Y.). Activities are given as the mean of duplicate determinations relative to control incubations in which the inhibitor was substituted with DMSO. In the following table 1 providing results for NR818, the following abbreviations are used: • CDK, cyclin-dependent kinase; • CK, casein kinase; • eEF-2K, eukaryotic elongation factor-2 kinase; • JNK, c-Jun N-terminal kinase; • MAPK, mitogen-activated protein kinase; • PKC, protein kinase C; and • PI 3-kinase, phosphatidylinositol 3-kinase.
# (§2) By using this experimental set-up, the inhibiting activity of NR953 on GSK-3 is also tested.
# T1 sequence (P49841 whole entry): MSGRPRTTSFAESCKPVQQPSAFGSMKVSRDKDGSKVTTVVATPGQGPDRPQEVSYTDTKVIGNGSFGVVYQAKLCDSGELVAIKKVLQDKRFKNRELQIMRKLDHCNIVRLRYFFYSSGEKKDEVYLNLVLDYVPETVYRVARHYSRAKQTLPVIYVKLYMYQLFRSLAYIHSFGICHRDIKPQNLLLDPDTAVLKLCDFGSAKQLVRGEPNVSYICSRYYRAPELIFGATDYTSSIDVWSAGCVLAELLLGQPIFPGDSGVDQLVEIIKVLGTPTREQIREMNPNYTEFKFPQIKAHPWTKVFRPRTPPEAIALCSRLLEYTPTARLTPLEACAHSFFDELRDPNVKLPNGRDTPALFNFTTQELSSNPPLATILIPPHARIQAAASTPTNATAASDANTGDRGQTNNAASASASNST
row,IC50 on GSK-3β,Structure (SMILES)
1,low micro-molar concentrations,Cc1nc(SC(O)C(O)C(O)C(O)C(O)CO)n(Nc2cccc3ccccc23)c1-c1ccccc1 (stereo not shown) [HER/NR953]

# Target: T2, GSK-3α (Homo sapiens, UniProt P49840)
# T2 construct: purchased Upstate Biotechnology
# Assay: Radiometric kinase activity assay
# Assay type: biochemical
# Conditions: same experimental set-up as Table 1
# Protocol: as §1, §2
# T2 sequence (P49840 whole entry): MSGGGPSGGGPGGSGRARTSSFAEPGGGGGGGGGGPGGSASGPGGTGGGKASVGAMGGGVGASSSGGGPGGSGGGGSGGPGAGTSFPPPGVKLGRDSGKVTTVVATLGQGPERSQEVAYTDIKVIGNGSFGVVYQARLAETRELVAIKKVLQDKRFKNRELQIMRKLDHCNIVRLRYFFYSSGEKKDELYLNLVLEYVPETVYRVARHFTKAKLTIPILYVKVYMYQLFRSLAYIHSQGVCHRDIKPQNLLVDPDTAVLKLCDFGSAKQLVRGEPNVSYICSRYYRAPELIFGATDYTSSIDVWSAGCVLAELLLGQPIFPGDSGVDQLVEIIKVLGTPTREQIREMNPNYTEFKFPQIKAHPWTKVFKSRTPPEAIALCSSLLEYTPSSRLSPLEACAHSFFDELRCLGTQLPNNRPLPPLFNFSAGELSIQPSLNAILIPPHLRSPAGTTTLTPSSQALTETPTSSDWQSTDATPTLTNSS
row,IC50 on GSK-3α,Structure (SMILES)
1,low micro-molar concentrations,Cc1nc(SC(O)C(O)C(O)C(O)C(O)CO)n(Nc2cccc3ccccc23)c1-c1ccccc1 (stereo not shown) [HER/NR953]

# Test system: M17-TAU P301L cells
# Assay: TAU cytotoxicity (LDH leakage) in retinoic acid incubated M17-TAU P301L cells
# Assay type: cell-based, human
# Conditions: Homo sapiens, 168 h, reduction of LDH activity of retinoic acid incubated M17-TAU P301L cells, 7 days; read-out: IC50
# Excerpt: An TAU expression plasmid was constructed by sub-cloning the cDNA of human TAU-P301L (encoding for TAU with proline 301 substituted by a leucine residue) into mammalian expression vector pcDNA3.1 resulting in plasmid pcDNA3.1-TAU P301L. Plasmids pcDNA3.1 and pcDNA3.1-TAU P301L were transfected to human neuroblastoma cells ([…]; ATCC No. CRL-2267) and independent clonal lines with the plasmids stably integrated into the genome were selected. […] Expression of the TAU P301L genes in the cell lines was confirmed by Western analysis.
# In degenerated or dead cells, lactate dehydrogenase (LDH) is leaked out of the cells into the extracellular environment due to a loss of plasma-membrane integrity. This principle was used to determine cytotoxicity by quantifying the level of leaked LDH into the growth medium.
# The detailed method for determining TAU cytotoxicity was as follows: From appropriate precultures of M17-3.1 and M17-TAU(P301L) cells were seeded at 2500 cells/cm2 in Optimem Reduced Serum without phenol red (Gibco, Cat. 31985-047) supplemented with 1% fetal calf serum, 1 mM sodium pyruvate, 1× non-essential amino acids, 500 μg/ml G418 0.5× antibiotic/antimycotic. After 3 hours of incubation at 37° C./5% CO2 1 volume of Optimem Reduced Serum (same as described above; except without fetal calf serum) supplemented with 2.5 μM retinoic acid (RA) was added. The cells were further incubated for 7 days. Subsequently, LDH activity was determined using Promega Cytotox 96 Non-Radioactive cytotoxicity assay, (Cat. G1780) according the supplier's instructions.
# The M17-TAU P301L cell line made it possible to assess the ability of the compounds of this invention to counteract TAU cytotoxicity. […] Potency of the relevant compounds was determined by testing them at different concentrations ranging from non-effective (thus at a relatively low concentration) to an effective concentration for their ability to reduce LDH activity of retinoic acid incubated M17-TAU P301L cells.
row,Structure (SMILES),IC50 [µg/mL]
1,CSc1nc(C)c(-c2ccccc2)n1Nc1cccc(Cl)c1 [HER/NR747],0.256
2,Cc1ccc(Nn2c(-c3ccccc3)c(C)[nH]c2=S)cc1Cl [HER/NR771],0.293
3,Cc1ncn(Nc2ccccc2)c1-c1ccccc1 [HER/NR776],0.455
4,Cc1cccc(Nn2c(-c3ccccc3)c(C(C)C)[nH]c2=S)c1 [HER/NR787],0.4
5,Cc1ncn(Nc2ccc(F)cc2)c1-c1ccccc1 [HER/NR786],0.191
6,Cc1[nH]c(=S)n(Nc2cccc(Cl)c2)c1-c1cccc(C#N)c1 [HER/NR803],0.086
7,Cc1[nH]c(=S)n(Nc2cccc(Cl)c2)c1-c1ccc(Cl)cc1 [HER/NR762],0.061
8,CCc1[nH]c(=S)n(Nc2cccc(Cl)c2)c1-c1ccccc1 [HER/NR789],0.184
9,COc1ccc(-c2c(C)[nH]c(=S)n2Nc2cccc(Cl)c2)cc1 [HER/NR763],0.456
10,Cc1ncn(Nc2cccc(Cl)c2)c1-c1cccc(Cl)c1 [HER/NR777],0.107
11,COc1cccc(Nn2c(-c3ccccc3)c(C)[nH]c2=S)c1 [HER/NR801],1.35
12,CSc1ccc(Nn2c(-c3ccccc3)c(C)[nH]c2=S)cc1 [HER/NR862],0.027
13,Cc1ncn(Nc2cccc(Cl)c2)c1-c1ccc(Br)cc1 [HER/NR865],0.071
14,Cc1[nH]c(=S)n(Nc2cccc(F)c2)c1-c1ccccc1 [HER/NR770],1.46
15,Cc1[nH]c(=S)n(Nc2cccc3ccccc23)c1-c1cccc(Br)c1 [HER/NR914],0.045
16,Cc1[nH]c(=S)n(Nc2cc(Cl)ccc2Cl)c1-c1ccccc1 [HER/NR769],0.434
17,Cc1cccc(Nn2cnc(C)c2-c2ccccc2)c1 [HER/NR790],0.059
18,Cc1cccc(Nn2cnc(C)c2-c2cccc(C(N)=O)c2)c1 [HER/NR809],0.33
19,Cc1[nH]c(=S)n(Nc2cccc(Cl)c2)c1-c1cccc(Cl)c1 [HER/NR761],0.11
20,Cc1c(-c2ccccc2)n(N(C)c2ccccc2)c(=S)n1C [HER/NR863],3.85
21,Cc1[nH]c(=S)n(Nc2cccc(Cl)c2)c1-c1cccc(C(=O)O)c1 [HER/NR810],1
22,Cc1[nH]c(=S)n(Nc2ccc(Cl)cc2)c1-c1ccccc1 [HER/NR725],0.176
23,Cc1cc(C)cc(Nn2c(-c3ccccc3)c(C)[nH]c2=S)c1 [HER/NR798],0.496
24,Cc1[nH]c(=S)n(Nc2cccc3ccccc23)c1-c1cccc(Cl)c1 [HER/NR915],0.037
25,Cc1[nH]c(=S)n(Nc2ccc(F)cc2)c1-c1ccccc1 [HER/NR773],0.426
26,Cc1ncn(Nc2cccc(Cl)c2)c1-c1cccc(C(=O)O)c1 [HER/NR815],0.805
27,Cc1[nH]c(=S)n(Nc2cccc(Cl)c2)c1-c1cccc(Br)c1 [HER/NR759],0.174

row,Structure (SMILES),IC50 [µg/mL]
1,Cc1ncn(Nc2cccc(Cl)c2)c1-c1ccccc1 [HER/NR746],0.081
2,CCc1[nH]c(=S)n(Nc2cccc(C)c2)c1-c1ccccc1 [HER/NR788],0.341
3,Cc1ccc(Nn2c(-c3ccccc3)c(C)[nH]c2=S)cc1C [HER/NR767],0.146
4,Cc1cc(C)cc(Nn2cnc(C)c2-c2ccccc2)c1 [HER/NR808],0.023
5,Cc1[nH]c(=S)n(Nc2cccc([N+](=O)[O-])c2)c1-c1ccccc1 [HER/NR774],2.13
6,Cc1[nH]c(=S)n(Nc2cccc(Br)c2)c1-c1ccccc1 [HER/NR768],0.44
7,Cc1cccc(Nn2c(-c3cccc(C(=O)O)c3)c(C)[nH]c2=S)c1 [HER/NR811],1.9
8,Cc1[nH]c(=S)n(Nc2ccccc2Cl)c1-c1ccccc1 [HER/NR723],0.024
9,COC(=O)c1cccc(-c2c(C)ncn2Nc2cccc(Cl)c2)c1 [HER/NR814],0.172
10,Cc1cccc(Nn2cnc(C)c2-c2cccc(C#N)c2)c1 [HER/NR806],0.141
11,CCc1ccc(Nn2c(-c3ccccc3)c(C)[nH]c2=S)cc1 [HER/NR861],0.106
12,Cc1cccc(Nn2c(SCc3ccccc3)nc(C)c2-c2ccccc2)c1 [HER/NR748],0.325
13,Cc1[nH]c(=S)n(Nc2cccc(Cl)c2)c1-c1ccccc1 [HER/NR724],0.34
14,Cc1[nH]c(=S)n(Nc2cccc(Cl)c2)c1-c1ccc(Br)cc1 [HER/NR760],0.12
15,Cc1[nH]c(=S)n(Nc2cccc(Cl)c2)c1-c1cccc(C(N)=O)c1 [HER/NR813],0.18
16,Cc1cccc(Nn2c(-c3ccccc3)c(C)[nH]c2=S)c1 [HER/NR775],0.321
17,Cc1ncn(Nc2cccc(Cl)c2)c1-c1cccc(C#N)c1 [HER/NR805],0.09
18,Cc1[nH]c(=S)n(N(C)c2ccccc2)c1-c1ccccc1 [HER/NR866],0.195
19,Cc1cccc(Nn2c(-c3cccc(C#N)c3)c(C)[nH]c2=S)c1 [HER/NR804],0.154
20,CCc1ncn(Nc2cccc(C)c2)c1-c1ccccc1 [HER/NR791],0.046
21,Cc1ccc(Nn2cnc(C)c2-c2ccccc2)cc1Cl [HER/NR864],0.057
22,COC(=O)c1cccc(-c2c(C)[nH]c(=S)n2Nc2cccc(Cl)c2)c1 [HER/NR812],0.328
23,Cc1[nH]c(=S)n(Nc2cccc(Cl)c2)c1-c1ccc(Cl)cc1Cl [HER/NR766],0.192
24,Cc1[nH]c(=S)n(Nc2ccccc2)c1-c1ccccc1 [HER/NR772],0.568
25,COc1cccc(Nn2cnc(C)c2-c2ccccc2)c1 [HER/NR802],1.34
26,Cc1nc(SC(O)C(O)C(O)C(O)C(O)CO)n(Nc2cccc3ccccc23)c1-c1ccccc1 (stereo not shown) [HER/NR953],0.052

# Same assay, conditions: reduction of LDH activity of retinoic acid incubated M17-TAU P301L cells, 7 days
row,Structure (SMILES),IC50 [µg/mL]
1,Cc1ncn(Nc2cccc(Cl)c2)c1-c1cccc(Br)c1 [HER/NR779],0.022
2,Cc1ncn(Nc2cccc(Cl)c2)c1-c1cccc(Br)c1 [HER/LI412 = NR779GLUCOSE],0.216
